Test results as given in US8658646B2, “Pyrrolopyrazine kinase inhibitors” (Hoffmann-LaRoche Inc., priority 2011, dated 2014).
Where “and” joins values, the source holds several entries; their conditions need not be identical. Identical values can stand only once.

Columns and labels:
[1] = target: T1, recombinant human SYK360-635 (Homo sapiens, UniProt P43405); assay: Determination of IC50 of Spleen Tyrosine Kinase (SYK) inhibition, 33P ATP filtration assay; type: biochemical; settings: SYK aa 360-635 0.5 nM; ATP 20 μM, peptide 5 μM, 0.1% BSA; read-out: SYK_ENZYME_FILTRATION/v1, BSA
T1 construct: made in house

[2] = target: T2, JAK3: Recombinant human kinase domain (Homo sapiens, UniProt P52333); assay: Determination of IC50 of Janus Kinase (JAK) inhibition, radioactive end-point 33P-ATP assay, JAK3; type: biochemical; settings: ATP 1.5 uM, peptide 50 uM, 20 minutes, read-out: JAK3-INHIB-DR/v1~NO ADDITIVE~Enzyme_Conc = 100
T2 construct: JAK3: Recombinant human kinase domain from Millipore (Cat #14-629) or prepared; purchased Millipore 14-629
T2 sequence (P52333 822-1111 limits assumed): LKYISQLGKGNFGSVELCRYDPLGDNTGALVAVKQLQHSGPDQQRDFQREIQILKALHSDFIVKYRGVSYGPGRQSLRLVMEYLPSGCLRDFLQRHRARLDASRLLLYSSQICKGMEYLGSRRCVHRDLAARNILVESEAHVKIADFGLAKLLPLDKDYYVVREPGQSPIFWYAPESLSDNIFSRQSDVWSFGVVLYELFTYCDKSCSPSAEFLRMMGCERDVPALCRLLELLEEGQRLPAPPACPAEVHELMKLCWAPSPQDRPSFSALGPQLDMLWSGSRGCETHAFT

## CC(CN1CCC(C#N)C1)NC(=O)c1c[nH]c2ncc(-c3nn(C)c4cc(Cl)ccc34)nc12 (stereo not drawn) [Example I-125, 2-(6-Chloro-1-methyl-1H-indazol-3-yl)-5H-pyrrolo[2,3-b]pyrazine-7-carboxylic acid [2-(3-cyano-pyrrolidin-1-yl)-1-methyl-ethyl]-amide]
[1]
  IC50: 83.5 nM
[2]
  IC50: 29.3 nM

## COC[C@H](CCS(C)(=O)=O)NC(=O)c1c[nH]c2ncc(-c3nn(C)c4cc(F)ccc34)nc12 [Example I-192, 2-(6-Fluoro-1-methyl-1H-indazol-3-yl)-5H-pyrrolo[2,3-b]pyrazine-7-carboxylic acid ((S)-3-methanesulfonyl-1-methoxymethyl-propyl)-amide]
[1]
  IC50: 135 nM
[2]
  IC50: 1.88 nM

## CC(CCCC(C)(C)O)NC(=O)c1c[nH]c2ncc(-c3nn(C)c4cc(Cl)ccc34)nc12 (stereo not drawn) [Example I-163, 2-(6-Chloro-1-methyl-1H-indazol-3-yl)-5H-pyrrolo[2,3-b]pyrazine-7-carboxylic acid (5-hydroxy-1,5-dimethyl-hexyl)-amide]
[1]
  IC50: 356 nM
[2]
  IC50: 80.7 nM

## Cn1nc(-c2cnc3[nH]cc(C(=O)N[C@@H]4CCCOC4)c3n2)c2ccc(Cl)cc21 [Example I-139, 2-(6-Chloro-1-methyl-1H-indazol-3-yl)-5H-pyrrolo[2,3-b]pyrazine-7-carboxylic acid (R)-tetrahydro-pyran-3-ylamide]
[1]
  IC50: 8.5 nM
[2]
  IC50: 4.59 nM

## Cn1nc(-c2cnc3[nH]cc(C(=O)N[C@H]4CC[C@@H](N)CC4)c3n2)c2ccc(Cl)cc21 [Example I-145, 2-(6-Chloro-1-methyl-1H-indazol-3-yl)-5H-pyrrolo[2,3-b]pyrazine-7-carboxylic acid (cis-4-amino-cyclohexyl)-amide]
[1]
  IC50: 1.9 nM
[2]
  IC50: 17.4 nM

## CC(Cc1ccccn1)NC(=O)c1c[nH]c2ncc(-c3nn(CCN4CCCC4)c4cc(F)ccc34)nc12 (stereo not drawn) [Example I-250, 2-[6-Fluoro-1-(2-pyrrolidin-1-yl-ethyl)-1H-indazol-3-yl]-5H-pyrrolo[2,3-b]pyrazine-7-carboxylic acid (1-methyl-2-pyridin-2-yl-ethyl)-amide]
[1]
  IC50: 8930 nM
[2]
  IC50: > 1000 nM

## CC(NC(=O)c1c[nH]c2ncc(-c3nn(CCN(C)C)c4cc(F)ccc34)nc12)c1ccncc1 (stereo not drawn) [Example I-249, 2-[1-(2-Dimethylamino-ethyl)-6-fluoro-1H-indazol-3-yl]-5H-pyrrolo[2,3-b]pyrazine-7-carboxylic acid (1-pyridin-4-yl-ethyl)-amide]
[1]
  IC50: 1990 nM
[2]
  IC50: 170 nM

## CC(C)(C)NC(=O)c1c[nH]c2ncc(-c3nn(CCCN4CC(F)(F)C4)c4ccc(OC(F)F)cc34)nc12 [Example I-296, 2-{1-[3-(3,3-Difluoro-azetidin-1-yl)-propyl]-5-difluoromethoxy-1H-indazol-3-yl}-5H-pyrrolo[2,3-b]pyrazine-7-carboxylic acid tert-butylamide]
[1]
  IC50: 13.9 nM
[2]
  IC50: 78.7 nM

## Cn1nc(-c2cnc3[nH]cc(C(=O)NC4CCC(N)C4)c3n2)c2ccc(Cl)cc21 (stereo not drawn) [Example I-37, 2-(6-Chloro-1-methyl-1H-indazol-3-yl)-5H-pyrrolo[2,3-b]pyrazine-7-carboxylic acid (3-amino-cyclopentyl)-amide]
[1]
  IC50: 6.4 nM
[2]
  IC50: 39.2 nM

## Cn1nc(-c2cnc3[nH]cc(C(=O)N[C@@H]4CCC[C@@H](C#N)C4)c3n2)c2ccc(Cl)cc21 (relative stereo) [Example I-156, 2-(6-Chloro-1-methyl-1H-indazol-3-yl)-5H-pyrrolo[2,3-b]pyrazine-7-carboxylic acid (trans-3-cyano-cyclohexyl)-amide]
[1]
  IC50: 85.1 nM
[2]
  IC50: 5.47 nM

## CC(O)C(C)NC(=O)c1c[nH]c2ncc(-c3nn(C)c4cc(Cl)ccc34)nc12 (stereo not drawn) [Example I-172, 2-(6-Chloro-1-methyl-1H-indazol-3-yl)-5H-pyrrolo[2,3-b]pyrazine-7-carboxylic acid (2-hydroxy-1-methyl-propyl)-amide]
[1]
  IC50: 13.5 nM
[2]
  IC50: 4.65 nM

## CC(NC(=O)c1c[nH]c2ncc(-c3nn(C)c4cc(Cl)ccc34)nc12)c1nccn1C (stereo not drawn) [Example I-199, 2-(6-Chloro-1-methyl-1H-indazol-3-yl)-5H-pyrrolo[2,3-b]pyrazine-7-carboxylic acid [1-(1-methyl-1H-imidazol-2-yl)-ethyl]-amide]
[1]
  IC50: 64.4 nM
[2]
  IC50: 178 nM

## CC(C)NC(=O)c1c[nH]c2ncc(-c3nn(Cc4ccon4)c4cc(Cl)ccc34)nc12 [Example I-310, 2-(6-Chloro-1-isoxazol-3-ylmethyl-1H-indazol-3-yl)-5H-pyrrolo[2,3-b]pyrazine-7-carboxylic acid isopropylamide]
[1]
  IC50: 35.3 nM
[2]
  IC50: 31.4 nM

## Cc1cc(C(C)NC(=O)c2c[nH]c3ncc(-c4nn(C)c5cc(F)ccc45)nc23)no1 (stereo not drawn) [Example I-54, 2-(6-Fluoro-1-methyl-1H-indazol-3-yl)-5H-pyrrolo[2,3-b]pyrazine-7-carboxylic acid [1-(5-methyl-isoxazol-3-yl)-ethyl]-amide]
[1]
  IC50: 77.7 nM
[2]
  IC50: 14 nM

## CC(NC(=O)c1c[nH]c2ncc(-c3nn(CCN4CCOCC4)c4cc(Cl)ccc34)nc12)c1cccnc1 (stereo not drawn) [Example I-245, 2-[6-Chloro-1-(2-morpholin-4-yl-ethyl)-1H-indazol-3-yl]-5H-pyrrolo[2,3-b]pyrazine-7-carboxylic acid (1-pyridin-3-yl-ethyl)-amide]
[1]
  IC50: 131 nM
[2]
  IC50: 47.2 nM

## CC(NC(=O)c1c[nH]c2ncc(-c3nn(C)c4cc(F)ccc34)nc12)[C@H]1C[C@H](O)C1 (stereo partly drawn) [Example I-75, 2-(6-Fluoro-1-methyl-1H-indazol-3-yl)-5H-pyrrolo[2,3-b]pyrazine-7-carboxylic acid [1-(trans-3-hydroxy-cyclobutyl)-ethyl]-amide]
[1]
  IC50: 9.2 nM
[2]
  IC50: 20.6 nM

## COc1ccc2c(-c3cnc4[nH]cc(C(=O)NC(C)(C)C)c4n3)nn(C)c2c1 [Example I-366, 2-(6-Methoxy-1-methyl-1H-indazol-3-yl)-5H-pyrrolo[2,3-b]pyrazine-7-carboxylic acid tert-butylamide]
[1]
  IC50: < 1 nM (2×) and 1.6 nM
[2]
  IC50: 63.7 nM

## CC(NC(=O)c1c[nH]c2ncc(-c3nn(C)c4cc(F)ccc34)nc12)C(O)C1CCOCC1 (single isomer, unassigned) [Example I-203, 2-(6-Fluoro-1-methyl-1H-indazol-3-yl)-5H-pyrrolo[2,3-b]pyrazine-7-carboxylic acid [cis-2-hydroxy-1-methyl-2-(tetrahydro-pyran-4-yl)-ethyl]-amide]
[1]
  IC50: 197 nM
[2]
  IC50: 263 nM

## Cn1nc(-c2cnc3[nH]cc(C(=O)N[C@@H]4CC[C@H](O)C4)c3n2)c2ccc(Cl)cc21 [Example I-151, 2-(6-Chloro-1-methyl-1H-indazol-3-yl)-5H-pyrrolo[2,3-b]pyrazine-7-carboxylic acid ((1R,3S)-3-hydroxy-cyclopentyl)-amide]
[1]
  IC50: 23.1 nM
[2]
  IC50: 3.47 nM

## C[C@H](Cn1ccnc1)NC(=O)c1c[nH]c2ncc(-c3nn(C)c4cc(Cl)ccc34)nc12 [Example I-134, 2-(6-Chloro-1-methyl-1H-indazol-3-yl)-5H-pyrrolo[2,3-b]pyrazine-7-carboxylic acid ((R)-2-imidazol-1-yl-1-methyl-ethyl)-amide]
[1]
  IC50: 482 nM
[2]
  IC50: 67.3 nM

## C[C@@H](NC(=O)c1c[nH]c2ncc(-c3nn(C)c4c(F)c(F)ccc34)nc12)C(=O)N1CC(C#N)C1 [Example I-86, 2-(6,7-Difluoro-1-methyl-1H-indazol-3-yl)-5H-pyrrolo[2,3-b]pyrazine-7-carboxylic acid [(R)-2-(3-cyano-azetidin-1-yl)-1-methyl-2-oxo-ethyl]-amide]
[1]
  IC50: 109 nM
[2]
  IC50: 0.745 nM

## COC[C@@H](NC(=O)c1c[nH]c2ncc(-c3nn(C)c4cc(F)ccc34)nc12)[C@H](C)O [Example I-188, 2-(6-Fluoro-1-methyl-1H-indazol-3-yl)-5H-pyrrolo[2,3-b]pyrazine-7-carboxylic acid ((1R,2S)-2-hydroxy-1-methoxymethyl-propyl)-amide]
[1]
  IC50: 168 nM
[2]
  IC50: 31.7 nM

## Cn1nc(-c2cnc3[nH]cc(C(=O)N[C@@H]4CCc5ccccc54)c3n2)c2ccc(Cl)cc21 [Example I-157, 2-(6-Chloro-1-methyl-1H-indazol-3-yl)-5H-pyrrolo[2,3-b]pyrazine-7-carboxylic acid (R)-indan-1-ylamide]
[1]
  IC50: 413 nM
[2]
  IC50: 71.6 nM

## CC(C)NC(=O)c1c[nH]c2ncc(-c3nn(C)c4c3CCC4)nc12 [Example I-282, 2-(1-Methyl-1,4,5,6-tetrahydro-cyclopentapyrazol-3-yl)-5H-pyrrolo[2,3-b]pyrazine-7-carboxylic acid isopropylamide]
[1]
  IC50: 31.9 nM
[2]
  IC50: 12.7 nM

## CC(C)NC(=O)c1c[nH]c2ncc(-c3nn(CCN(C)C)c4cc(Cl)cc(F)c34)nc12 [Example I-128, 2-[6-Chloro-1-(2-dimethylamino-ethyl)-4-fluoro-1H-indazol-3-yl]-5H-pyrrolo[2,3-b]pyrazine-7-carboxylic acid isopropylamide]
[1]
  IC50: 186 nM
[2]
  IC50: 13.3 nM

## COC[C@H](C)NC(=O)c1c[nH]c2ncc(-c3nn(CCN4CC[C@H](F)C4)c4cc(F)ccc34)nc12 [Example I-243, 2-{6-Fluoro-1-[2-((S)-3-fluoro-pyrrolidin-1-yl)-ethyl]-1H-indazol-3-yl}-5H-pyrrolo[2,3-b]pyrazine-7-carboxylic acid ((S)-2-methoxy-1-methyl-ethyl)-amide]
[1]
  IC50: 70.5 nM
[2]
  IC50: 1.47 nM

## Cn1nc(-c2cnc3[nH]cc(C(=O)NC4CCC(NS(C)(=O)=O)C4)c3n2)c2ccc(Cl)cc21 (stereo not drawn) [Example I-38, 2-(6-Chloro-1-methyl-1H-indazol-3-yl)-5H-pyrrolo[2,3-b]pyrazine-7-carboxylic acid (3-methanesulfonylamino-cyclopentyl)-amide]
[1]
  IC50: 15.9 nM
[2]
  IC50: 9.01 nM
